Eight compounds from patent US11208387B2, “Macrocyclic broad spectrum antibiotics” (Genentech, Inc., priority 2019, dated 2021) can be followed below.

≈ marks a conversion by molar mass, not a printed value. Where two headings read alike, the source gives them in different places.

Experiment in all cases: Serum MIC, broth micro-dilution
Common to all, as to format: cell-based
On the technique in general: In broth dilution the organism is exposed to a series of concentrations in liquid medium.

For assay [1], the system named is Escherichia coli strain ATCC 25922. The settings on record: Escherichia coli, read-out: E. coli 25922 Serum MIC. On the procedure: (§1) In vitro antimicrobial activity of each compound was determined by measuring minimal inhibitor concentrations (MICs) using the broth micro-dilution technique as approved by the Clinical and Laboratory Standards Institute (CLSI) (Methods for Dilution Antimicrobial Susceptibility Tests for Bacteria that Grow Aerobically; Approved Standard—Eighth Edition. CLSI document M07-A8. Wayne, Pa.: Clinical and Laboratory Standards; 2009). Antibacterial activity was measure against Escherichia coli strain ATCC 25922 (E. coli), Klebsiella pneumoniae ATCC 700603 (K. pneumoniae), Acinetobacter baumannii ATCC 17978 (A. baumannii), and Pseudomonas aeruginosa PA01 (P. aeruginosa), each of which is representative of a clinically relevant Gram-negative species. Cells were inoculated onto plates of Mueller Hinton Agar and grown at 37° C. for 16-18 hours. Inocula suspensions were prepared by scraping cells into 1 mL of testing media (Mueller Hinton II cation adjusted Broth) and diluting to a final OD 600 nm of 0.01.
(§2) Test compounds were prepared in DMSO at a concentration of […]. The compounds were tested under several different dilution formats. In protocol 1, the compound stocks were diluted into testing media at a concentration of 64 μg/ml and serial 2-fold dilutions were made in the same media, in 96-well U bottom microtiter dishes, for a total of 10 compound concentrations. In protocol 2, the compound stocks were diluted into testing media at a concentration of 4 μg/mL and serial 2-fold dilutions were made in the same media, in 96-well U bottom microtiter dishes, for a total of 10 compound concentrations. In protocol 3, compound stocks were diluted into testing media at a concentration of 0.5 μg/mL, with serial 2-fold dilutions conducted as described above. In protocol 4, compound stocks were diluted into testing media at a concentration of 0.13 μg/mL, with serial 2-fold dilutions conducted as described above. Inocula suspensions were added to the 2-fold serial dilutions of test compounds to a final density of OD 600 nm of 0.0005 and incubated at 35° C. for 22 hours. […] To assess antimicrobial activity in the presence of plasma proteins, MICs were also determined in growth media supplemented with 50% serum. Bacterial inocula and test compound dilution plates were prepared using the same protocol as described above for the standard MICs assay, with the exception that a mixture of 50% v/v Mueller Hinton II cation adjusted Broth and 50% v/v mouse sterile filtered serum (Equitech-Bio) was used in place of 100% Mueller Hinton II cation adjusted Broth. The results are listed in Table 3 (MIC, IC50 values micromolar).

For assay [2], the system named is Acinetobacter baumannii ATCC 17978. The settings on record: Acinetobacter baumannii. On the procedure:
as §1, §2

Assay [3] has as its system Klebsiella pneumoniae ATCC 700603. The settings on record: Klebsiella pneumoniae. The method, then:
as §1, §2

Assay [4] has as its system Pseudomonas aeruginosa PA01. The settings on record: Pseudomonas aeruginosa, read-out: P. aeruginosa 01 Serum MIC. The method, then: as §1, §2
[5] abbreviates: ATCC25922, 50% v/v mouse serum in Mueller Hinton II cation adjusted Broth, 35° C., 22 hours, Table 4.
Where [6] appears, read: ATCC17978, 50% v/v mouse serum in Mueller Hinton II cation adjusted Broth, 35° C., 22 hours, Table 4, read-out: A. baumanii 17978 Serum MIC.
Where [7] appears, read: ATCC17978, 50% v/v mouse serum in Mueller Hinton II cation adjusted Broth, 35° C., 22 hours, Table 5, read-out: Acinetobacter baumanii 17978 Serum MIC.
[8] abbreviates: ATCC700603, 50% v/v mouse serum in Mueller Hinton II cation adjusted Broth, 35° C., 22 hours, Table 4, read-out: K pneumoniae 700603 Serum MIC.
[9] abbreviates: PA01, 50% v/v mouse serum in Mueller Hinton II cation adjusted Broth, 35° C., 22 hours, Table 4.

With `Cc1cc(-c2ccc(C(C)(C)C)cc2F)nc(N)c1C(=O)N[C@@H](CNS(N)(=O)=O)C(=O)N(C)[C@@H]1C(=O)N[C@@H](C)C(=O)N[C@H](C(=O)O)Cc2ccc(OC[C@H](O)CN)c(c2)-c2cc1cc(OC[C@H](O)CN)c2O` [Example 35, (8S,11S,14S)-14-[[(2S)-2-[[2-amino-6-(4-tert-butyl-2-fluoro-phenyl)-4-methyl-pyridine-3-carbonyl]amino]-3-(sulfamoylamino)-propanoyl]-methyl-amino]-3,17-bis[(2R)-3-amino-2-hydroxy-propoxy]-18-hydroxy-11-methyl-10,13-dioxo-9,12-diazatricyclo-[13.3.1.12,6]icosa-1(18),2(20),3,5,15(19), 16-hexaene-8-carboxylic acid], the MIC in assay [1] (setting [5]) came out at 0.5 µM (≈ 0.513 µg/mL); in assay [2] (setting [6]) it was 16 µM (≈ 16.4 µg/mL); in assay [2] (setting [7]), 16 µM (≈ 16.4 µg/mL); in assay [3] (setting [8]), 0.5 µM (≈ 0.513 µg/mL); in assay [4] (setting [9]), 8 µM (≈ 8.2 µg/mL).
Turning to `C[C@@H]1NC(=O)[C@@H](N(C)C(=O)[C@H](CCN)NC(=O)c2cnn(-c3ccc(C(C)(C)C)cc3)c(=O)c2)c2cc(OC[C@H](O)CN)c(O)c(c2)-c2cc(ccc2OC[C@H](O)CN)C[C@@H](C(=O)O)NC1=O` [Example 17, (8S,11S,14S)-18-hydroxy-11-methyl-14-[methyl-[(2S)-4-amino-2-[[1-(4-tert-butylphenyl)-6-oxo-pyridazine-4-carbonyl]amino]-butanoyl]amino]-10,13-dioxo-3,17-bis[(2R)-3-amino-2-hydroxy-propoxy]-9,12-diazatricyclo-[13.3.1.12,6]icosa-1(18),2(20),3,5,15(19), 16-hexaene-8-carboxylic acid], the MIC in assay [1] (ATCC25922, 22 h) is 1 µM (≈ 0.93 µg/mL); in assay [2] (ATCC17978, 22 h, read-out: A. baumanii 17978 Serum MIC), 16 µM (≈ 14.9 µg/mL); in assay [2] (ATCC17978, 22 h, read-out: Acinetobacter baumanii 17978 Serum MIC) it was 16 µM (≈ 14.9 µg/mL); in assay [3] (ATCC700603, 22 h, read-out: K pneumoniae 700603 Serum MIC) it was 1 µM (≈ 0.93 µg/mL); in assay [4] (PA01, 22 h), 64 µM (≈ 59.5 µg/mL).
Regarding `C[C@@H]1NC(=O)[C@@H](N(C)C(=O)[C@H](CNS(N)(=O)=O)NC(=O)c2c(N)nc(-c3ccc(C(C)(C)C)cc3)nc2Cl)c2cc(OC[C@H](O)CN)c(O)c(c2)-c2cc(ccc2OC[C@H](O)CN)C[C@@H](C(=O)O)NC1=O` [Example 53, (8S,11S,14S)-14-[[(2S)-2-[[4-amino-2-(4-tert-butylphenyl)-6-chloro-pyrimidine-5-carbonyl]amino]-3-(sulfamoylamino)-propanoyl]-methyl-amino]-3,17-bis[(2R)-3-amino-2-hydroxy-propoxy]-18-hydroxy-11-methyl-10,13-dioxo-9,12-diazatri-cyclo[13.3.1.12,6]icosa-1(18),2(20),3,5,15(19), 16-hexaene-8-carboxylic acid], the MIC in assay [1] (setting [5]) is 0.38 µM (≈ 0.391 µg/mL); in assay [2] (setting [6]) it was 6 µM (≈ 6.17 µg/mL); in assay [2] (setting [7]), 6 µM (≈ 6.17 µg/mL); in assay [3] (setting [8]) it was 0.5 µM (≈ 0.514 µg/mL); in assay [4] (setting [9]) it was 3 µM (≈ 3.09 µg/mL).
Consider `C[C@@H]1NC(=O)[C@@H](N(C)C(=O)[C@H](CNS(N)(=O)=O)NC(=O)c2cnn(-c3ccc(OC4CCCCC4)cc3)c(=O)c2)c2cc(OC[C@H](O)CN)c(O)c(c2)-c2cc(ccc2OC[C@H](O)CN)C[C@@H](C(=O)O)NC1=O` [Example 9, (8S,11S,14S)-18-hydroxy-11-methyl-14-[methyl-[(2S)-2-[[1-[4-(cyclohexoxy)-phenyl]-6-oxo-pyridazine-4-carbonyl]amino]-3-(sulfamoylamino)-propanoyl]amino]-10,13-dioxo-3,17-bis[(2R)-3-amino-2-hydroxy-propoxy]-9,12-diazatricyclo-[13.3.1.12,6]icosa-1(18),2(20),3,5,15(19), 16-hexaene-8-carboxylic acid], for which the MIC in assay [1] (setting [5]) came to 6 µM (≈ 6.22 µg/mL); in assay [2] (setting [6]), 32 µM (≈ 33.2 µg/mL); in assay [2] (setting [7]), 32 µM (≈ 33.2 µg/mL); in assay [3] (setting [8]), 1.5 µM (≈ 1.56 µg/mL); in assay [4] (setting [9]), 32 µM (≈ 33.2 µg/mL).
`Cc1nc(-c2ccc(C(C)(C)C)cc2O)cc(CN)c1C(=O)N[C@@H](CNS(N)(=O)=O)C(=O)N(C)[C@@H]1C(=O)N[C@@H](C)C(=O)N[C@H](C(=O)O)Cc2ccc(OC[C@H](O)CN)c(c2)-c2cc1cc(OC[C@H](O)CN)c2O` [Example 65, (8S,11S,14S)-3,17-bis[(2R)-3-amino-2-hydroxy-propoxy]-14-[[(2S)-2-[[4-(aminomethyl)-6-(4-tert-butyl-2-hydroxy-phenyl)-2-methyl-pyridine-3-carbonyl]-amino]-3-(sulfamoyl-amino)propanoyl]-methyl-amino]-18-hydroxy-11-methyl-10,13-dioxo-9,12-diazatricyclo-[13.3.1.12,6]icosa-1(19),2(20),3,5,15,17-hexaene-8-carboxylic acid]: the MIC in assay [1] (setting [5]) was 1 µM (≈ 1.04 µg/mL); in assay [2] (setting [6]), 32 µM (≈ 33.2 µg/mL); in assay [2] (setting [7]), 32 µM (≈ 33.2 µg/mL); in assay [3] (setting [8]), 1 µM (≈ 1.04 µg/mL); in assay [4] (setting [9]), 16 µM (≈ 16.6 µg/mL).
Turning to `C[C@@H]1NC(=O)[C@@H](N(C)C(=O)[C@H](CCN)NC(=O)c2cnn(-c3ccc(OC4CCCCC4)cc3)c(=O)c2)c2cc(OC[C@H](O)CN)c(O)c(c2)-c2cc(ccc2OC[C@H](O)CN)C[C@@H](C(=O)O)NC1=O` [Example 26, (8S,11S,14S)-18-hydroxy-11-methyl-14-[methyl-[(2S)-4-amino-2-[[1-[4-(cyclohexoxy)phenyl]-6-oxo-pyridazine-4-carbonyl]amino]-butanoyl]amino]-10,13-dioxo-3,17-bis[(2R)-3-amino-2-hydroxy-propoxy]-9,12-diazatricyclo-[13.3.1.12,6]icosa-1(18),2(20),3,5,15(19), 16-hexaene-8-carboxylic acid], the minimum inhibitory concentration (MIC) was found to be 1 µM (≈ 0.972 µg/mL) in assay [1] (setting [5]); 24 µM (≈ 23.3 µg/mL) in assay [2] (setting [6]); 24 µM (≈ 23.3 µg/mL) in assay [2] (setting [7]); 0.75 µM (≈ 0.729 µg/mL) in assay [3] (setting [8]); 64 µM (≈ 62.2 µg/mL) in assay [4] (setting [9]).
In the case of `CCCCCCOc1ccc(-c2nc(C)c(C(=O)N[C@@H](CCN)C(=O)N(C)[C@@H]3C(=O)N[C@@H](C)C(=O)N[C@H](C(=O)O)Cc4ccc(OCCN)c(c4)-c4cc3ccc4OCCN)c(C)n2)cc1` (racemic) [Example 641], the MIC was 0.75 µM (≈ 0.683 µg/mL) in assay [1] (ATCC25922, 50% v/v mouse serum, compounds of Table 1, Table 7); 64 µM (≈ 58.2 µg/mL) in assay [2] (ATCC17978, 50% v/v mouse serum, compounds of Table 1, Table 7, read-out: A. baumanii 17978 Serum MIC); 1 µM (≈ 0.91 µg/mL) in assay [3] (ATCC700603, 50% v/v mouse serum, compounds of Table 1, Table 7, read-out: K. pneumoniae 700603 Serum MIC); 64 µM (≈ 58.2 µg/mL) in assay [4] (PA01, 50% v/v mouse serum, compounds of Table 1, Table 7).
As for `C[C@@H]1NC(=O)[C@@H](N(C)C(=O)[C@H](CNS(N)(=O)=O)NC(=O)c2cnc(-c3ccc(C(C)(C)C)cc3)nc2N)c2cc(OC[C@H](O)CN)c(O)c(c2)-c2cc(ccc2OC[C@H](O)CN)C[C@@H](C(=O)O)NC1=O` [Example 46, (8S,11S,14S)-14-[[(2S)-2-[[4-amino-2-(4-tert-butylphenyl)-pyrimidine-5-carbonyl]amino]-3-(sulfamoylamino)-propanoyl]-methyl-amino]-3,17-bis[(2R)-3-amino-2-hydroxy-propoxy]-18-hydroxy-11-methyl-10,13-dioxo-9,12-diazatricyclo-[13.3.1.12,6]icosa-1(18),2(20),3,5,15(19), 16-hexaene-8-carboxylic acid], the MIC in assay [1] (setting [5]) was determined as 0.5 µM (≈ 0.497 µg/mL); in assay [2] (setting [6]) it was 8 µM (≈ 7.95 µg/mL); in assay [2] (setting [7]), 8 µM (≈ 7.95 µg/mL); in assay [3] (setting [8]) it was 0.5 µM (≈ 0.497 µg/mL); in assay [4] (setting [9]), 16 µM (≈ 15.9 µg/mL).

A word on the MIC: it is the lowest concentration found to suppress growth.
